From patent US10088490B2, “Assay for analytes using multiple receptors” (Siemens Healthcare Diagnostics Inc., priority 2010, dated 2018)

Tests used:
Format in all cases: binding
[1] = test system: mixture of Biotinylated Antibody A Reagent and Biotinylated Antibody L Reagent; assay: LOCI competitive cortisol immunoassay, cross-reactivity with mixtures of Biotinylated Antibody A and L Reagents; settings: for percent cross reactivity: steroid-stripped serum with cortisol
Protocol: (§1) The assay used for screening purposes was conducted on the DIMENSION® VISTA® instrument (system) (Siemens Healthcare Diagnostics Inc., Newark Del.). Initially, 20 μL Biotinylated Antibody Reagent with 15 μL system water was added to the vessel. After 22 seconds, 15 μL sample with 15 μL system water were added to the vessel. After almost 4 minutes, 20 μL Chemibead Reagent with 15 μL system water were added to the vessel. Approximately 7 minutes later, 20 μL Sensibead Reagent with 135 μL system water was added to the vessel. The LOCI® read was taken after approximately 5 minutes. The assay from the first reagent addition to the final read took approximately 16 minutes. The contents of the vessel when the final read is taken were as follows: 2 ng/mL Biotinylated Antibody Reagent, 4 μg/mL Chemibead Reagent, 56 μg/mL Sensibead Reagent, and […] sample. The assay is a competitive format, which means that the greater the concentration of analyte in the sample, the smaller is the signal generation. This is because a detectable complex is formed by the Biotinylated Antibody Reagent, Chemibead Reagent, and Sensibead Reagent in the absence of analyte. The presence of analyte decreases the proportion of Biotinylated Antibody Reagent that is free to form detectable complexes.
(§2) Initial testing used Biotinylated Antibody A Reagent with the other reagents and the methodology described above to analyze the steroid-stripped serum with cortisol. The panel of 34 cross-reactants were individually added to the steroid-stripped serum with a defined concentration of cortisol (5 ng/dL) and assayed. Cross-reactivity data were calculated as follows:
(§3) [formula] The same testing was performed using Biotinylated Antibody L Reagent. The compilation of the percent cross-reactivities for the 34 compounds is referred to as the cross-reactivity profile. The apparent cortisol concentration is the cortisol value obtained when testing a sample containing cortisol and the interfering substance by the above test method that also detects the interfering substance to some degree.
A further study was performed by mixing Biotinylated Antibody A Reagent with Biotinylated Antibody L Reagent in a 50:50 mixture; 80% Biotinylated Antibody A Reagent: 20% Biotinylated Antibody L Reagent; 75% Biotinylated Antibody A Reagent: 25% Biotinylated Antibody L Reagent; and 70% Biotinylated Antibody A Reagent: 30% Biotinylated Antibody L Reagent. […] These reagents were used to test cross-reactivity in stripped serum with cortisol.

[2] = test system: Antibody L specific for cortisol (clone XM210, IgG2a); assay: LOCI competitive cortisol immunoassay, cross-reactivity screening with Biotinylated Antibody L Reagent; settings: 100% L Biotinylated Antibody; steroid-stripped serum with cortisol (5 ng/dL)
Protocol: (§4) The antibodies were subjected to analytical size exclusion chromatography prior to any manipulations.
(§5) NHS-PEO4-Biotin was dissolved fresh at 10 mg/mL in Antibody Dialysis Buffer. […] The mixture was rocked at 25° C. for exactly 3 hours. A 200 mM solution of glycine was prepared by dissolving 750 mg glycine in Antibody Dialysis Buffer to a total volume of 50 mL. At the end of the 3-hour biotinylation reaction, 1.52 mL of the 200 mM glycine solution was added to the reaction mixture. The quenched reaction mixture was rocked an additional 60 minutes at 25° C.
(§6) The biotinylated antibody was then purified using preparatory HPLC using Antibody Dialysis Buffer as the mobile phase. […] This reagent was designated as the Biotinylated Antibody Reagent.
as §1, §2, §3

[3] = test system: Antibody A specific for cortisol (clone 16DC/17.7, IgG1κ); assay: LOCI competitive cortisol immunoassay, cross-reactivity screening with Biotinylated Antibody A Reagent; settings: 100% A Biotinylated Antibody; steroid-stripped serum with cortisol (5 ng/dL)
Protocol: as §4, §5, §6, §1, §2, §3

[4] = 70% A 30% L Biotinylated Antibody
[5] = 75% A 25% L Biotinylated Antibody
[6] = 80% A 20% L Biotinylated Antibody

| SMILES | percent cross reactivity [1, 4] [%] | percent cross reactivity [1, 5] [%] | percent cross reactivity [1, 6] [%] | percent cross reactivity [2] [%] | percent cross reactivity [3] [%] | decrease of percent cross-reactivity ([1]; incorporation of 25% Biotinylated Antibody Reagent L versus 100% A) |
| --- | --- | --- | --- | --- | --- | --- |
| C[C@]12CC(=O)[C@H]3[C@@H](CCC4=CC(=O)CC[C@@]43C)[C@@H]1CC[C@@H]2C(=O)CO [dehydrocorticosterone] | 0.7 | 0.7 | 0.7 | 0.8 | 0.6 | – |
| CC(=O)[C@@]1(O)CC[C@H]2[C@@H]3CC=C4C[C@@H](O)CC[C@]4(C)[C@H]3CC[C@@]21C [17β-hydroxypregnenolone] | 0.1 | 0.1 | 0.1 | 0.1 | 0.1 | – |
| C[C@]12CC[C@@H](O)C[C@H]1CC[C@@H]1[C@@H]2[C@@H](O)C[C@@]2(C)[C@H]1CC[C@]2(O)[C@@H](O)CO [α-cortol] | 0.7 | 0.6 | 0.5 | 1.0 | 0.2 | – |
| CC(=O)[C@H]1CC[C@H]2[C@@H]3CCC4=CC(=O)CC[C@]4(C)[C@H]3[C@@H](O)C[C@]12C [11β-hydroxyprogesterone] | 0.7 | 0.7 | 0.6 | 0.7 | 0.6 | – |
| C[C@]12CC[C@H]3[C@@H](CCC4=CC(=O)CC[C@@]43C)[C@@H]1CC[C@@H]2C(=O)CO [11-deoxycorticosterone] | 0.8 | 0.8 | 0.8 | 0.8 | 0.7 | – |
| C[C@]12CC[C@@H](O)C[C@H]1CC[C@@H]1[C@@H]2C(=O)C[C@]2(C)C(=O)CC[C@@H]12 [11-ketoetiocholanolone] | 0.0 | 0.0 | 0.0 | 0.0 | 0.0 | – |
| C[C@]12CCC(=O)C=C1CC[C@@H]1[C@@H]2C(=O)C[C@@]2(C)[C@H]1CC[C@]2(O)C(=O)CO [cortisone] | 2.5 | 2.8 | 3.1 | 1.4 | 41.7 | greater than 90% |
| C[C@]12CCC(=O)C=C1[C@H](O)C[C@@H]1[C@@H]2[C@@H](O)C[C@@]2(C)[C@H]1CC[C@]2(O)C(=O)CO [6β-hydroxycortisol] | 6.9 | 6.2 | 5.5 | 100.0 | 2.7 | – |
